From patent US12559506B2, “Indazole based compounds and associated methods of use” (Arvinas Operations, Inc., priority 2021, dated 2026)
Like-named read-outs stand apart in the source and are kept apart here. Each block holds one molecule with its values, some of them ahead of it.

Target: T1, LRRK2 (endogenous, HiBit tagged) (Homo sapiens, UniProt Q5S007)
T1 construct: endogenous in cells; host or cells: HEK293 cells with HiBit knock-in at the endogenous LRRK2 locus, stably expressing firefly luciferase
T1 sequence (Q5S007 whole entry): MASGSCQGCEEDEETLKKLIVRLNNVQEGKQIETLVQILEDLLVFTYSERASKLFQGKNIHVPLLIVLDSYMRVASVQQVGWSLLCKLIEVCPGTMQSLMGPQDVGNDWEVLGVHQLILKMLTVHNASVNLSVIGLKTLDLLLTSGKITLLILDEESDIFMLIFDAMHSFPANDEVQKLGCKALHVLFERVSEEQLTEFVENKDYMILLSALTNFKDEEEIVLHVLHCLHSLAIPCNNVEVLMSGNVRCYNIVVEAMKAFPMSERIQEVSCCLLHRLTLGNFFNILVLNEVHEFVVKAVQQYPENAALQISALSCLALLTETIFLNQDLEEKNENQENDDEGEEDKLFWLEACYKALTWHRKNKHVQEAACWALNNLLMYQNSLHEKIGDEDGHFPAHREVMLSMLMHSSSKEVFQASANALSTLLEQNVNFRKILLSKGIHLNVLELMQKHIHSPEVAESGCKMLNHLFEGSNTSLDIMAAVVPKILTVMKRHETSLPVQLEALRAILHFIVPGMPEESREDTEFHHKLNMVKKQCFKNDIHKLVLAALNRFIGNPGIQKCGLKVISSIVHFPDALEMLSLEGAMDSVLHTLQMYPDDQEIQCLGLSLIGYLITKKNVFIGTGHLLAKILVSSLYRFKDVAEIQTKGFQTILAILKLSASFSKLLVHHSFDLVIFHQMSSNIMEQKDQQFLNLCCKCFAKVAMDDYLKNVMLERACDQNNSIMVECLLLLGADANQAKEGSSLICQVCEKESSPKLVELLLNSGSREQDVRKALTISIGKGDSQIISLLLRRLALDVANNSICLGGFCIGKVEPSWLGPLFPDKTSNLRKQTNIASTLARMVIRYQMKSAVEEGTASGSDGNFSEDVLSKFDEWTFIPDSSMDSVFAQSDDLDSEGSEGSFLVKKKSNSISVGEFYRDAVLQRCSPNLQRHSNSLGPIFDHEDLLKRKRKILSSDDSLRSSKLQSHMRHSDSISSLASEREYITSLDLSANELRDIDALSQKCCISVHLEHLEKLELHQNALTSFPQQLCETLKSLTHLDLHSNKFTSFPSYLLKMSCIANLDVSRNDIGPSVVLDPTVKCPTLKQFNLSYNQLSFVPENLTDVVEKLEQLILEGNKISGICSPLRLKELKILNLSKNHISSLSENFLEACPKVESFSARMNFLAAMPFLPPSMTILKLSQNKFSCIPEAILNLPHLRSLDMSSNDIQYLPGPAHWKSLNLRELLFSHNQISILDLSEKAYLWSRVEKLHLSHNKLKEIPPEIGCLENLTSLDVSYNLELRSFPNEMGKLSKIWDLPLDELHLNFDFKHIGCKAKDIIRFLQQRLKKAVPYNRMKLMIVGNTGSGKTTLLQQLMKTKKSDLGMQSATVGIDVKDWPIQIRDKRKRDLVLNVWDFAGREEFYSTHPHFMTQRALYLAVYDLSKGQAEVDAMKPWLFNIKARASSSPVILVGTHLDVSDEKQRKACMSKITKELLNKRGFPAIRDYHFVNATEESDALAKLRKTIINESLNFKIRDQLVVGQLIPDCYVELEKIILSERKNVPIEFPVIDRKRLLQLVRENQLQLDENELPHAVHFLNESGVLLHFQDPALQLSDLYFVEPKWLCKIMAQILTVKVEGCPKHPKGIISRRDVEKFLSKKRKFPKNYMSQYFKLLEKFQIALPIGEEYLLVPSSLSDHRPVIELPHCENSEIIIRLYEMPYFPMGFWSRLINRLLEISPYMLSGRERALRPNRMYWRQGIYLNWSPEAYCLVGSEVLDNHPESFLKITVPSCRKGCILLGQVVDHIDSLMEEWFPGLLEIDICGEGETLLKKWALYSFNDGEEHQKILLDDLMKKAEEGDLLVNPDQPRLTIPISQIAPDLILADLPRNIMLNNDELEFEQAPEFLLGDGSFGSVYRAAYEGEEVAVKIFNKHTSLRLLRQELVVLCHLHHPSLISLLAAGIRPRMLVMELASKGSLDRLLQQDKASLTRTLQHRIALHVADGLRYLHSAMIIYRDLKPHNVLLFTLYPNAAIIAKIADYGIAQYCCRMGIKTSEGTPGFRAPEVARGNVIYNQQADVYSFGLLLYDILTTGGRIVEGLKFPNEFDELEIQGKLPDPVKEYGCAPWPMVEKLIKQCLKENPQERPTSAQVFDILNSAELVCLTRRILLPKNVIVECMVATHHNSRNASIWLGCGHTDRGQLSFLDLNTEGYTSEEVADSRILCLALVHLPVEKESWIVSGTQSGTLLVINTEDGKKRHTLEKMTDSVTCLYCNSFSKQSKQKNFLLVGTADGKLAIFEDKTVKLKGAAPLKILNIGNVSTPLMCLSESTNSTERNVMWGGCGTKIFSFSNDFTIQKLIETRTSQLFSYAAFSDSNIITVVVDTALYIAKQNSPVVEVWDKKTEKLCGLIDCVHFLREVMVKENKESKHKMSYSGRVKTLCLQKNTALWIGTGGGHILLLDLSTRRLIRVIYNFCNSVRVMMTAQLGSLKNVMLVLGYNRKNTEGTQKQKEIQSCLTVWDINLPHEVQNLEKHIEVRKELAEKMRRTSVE
Experiment: Endogenous LRRK2 degradation assay, endogenous gene C-terminally HiBit-tagged in HEK293 cells (Nano-Glo Dual Luciferase)
Type: cell-based
How it was run: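 LRRK2-HiBit quantified via Nano-Glo Dual Luciferase in HEK293 knock-in cells co-expressing firefly luciferase, after 24 h exposure to compound (1 μM final top, 1:3, 11 points). Values normalised to DMSO median per plate and curve-fitted; Alamar Blue viability run alongside.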

[1] = endogenous HiBit-tagged LRRK2, HEK293 cells, 24 hours, read-out: **Endogenous WT Dmax (%)
[2] = endogenous HiBit-tagged LRRK2, HEK293 cells, 24 hours, read-out: *Endogenous WT DC50
[3] = endogenous HiBit-tagged LRRK2 in HEK293 cells, 24 hours treatment, read-out: **Endogenous WT Dmax (%)
[4] = endogenous HiBit-tagged LRRK2 in HEK293 cells, 24 hours treatment, read-out: *Endogenous WT DC50
[5] = endogenous HiBit-tagged LRRK2 in HEK293 cells, 24 hours treatment, read-out: Endogenous WT DC50
[6] = endogenous HiBit-tagged LRRK2 in HEK293 cells, 24 hours treatment, read-out: Endogenous WT Dmax

Structure (SMILES): C[C@H]1CN(c2cc(-c3[nH]nc4ccc(OC5(C)CC5)cc34)ncn2)CCN1CCN1CCC(CN2CCN(c3ccc4c(c3F)CN(C3CCC(=O)NC3=O)C4=O)CC2)CC1 (stereo partly drawn) [Compound 184, 3-[4-fluoro-5-[4-[[1-[2-[(2S)-2-methyl-4-[6-[5-(1-methylcyclopropoxy)-2H-indazol-3-yl]pyrimidin-4-yl]piperazin-1-yl]ethyl]-4-piperidyl]methyl]piperazin-1-yl]-1-oxo-isoindolin-2-yl]piperidine-2,6-dione]
- Dmax [1]: ≥ 70%
- DC50 [2]: < 0.01 µM

Structure (SMILES): Cc1c(N2CCC(O[C@H]3CC[C@H](CN4CCN(c5cc(-c6n[nH]c7ccc(OC8(C)CC8)cc67)ncn5)CC4)CC3)CC2)ccc2c1CN(C1CCC(=O)NC1=O)C2=O (stereo partly shown) [Compound 333, 3-(4-methyl-5-(4-(((1r,4r)-4-((4-(6-(5-(1-methylcyclopropoxy)-1H-indazol-3-yl)pyrimidin-4-yl)piperazin-1-yl)methyl)cyclohexyl)oxy)piperidin-1-yl)-1-oxoisoindolin-2-yl)piperidine-2,6-dione]
- Dmax [3]: 50 to 70%
- DC50 [4]: < 0.01 µM

Structure (SMILES): COc1c(N2CCN(C[C@H]3CC[C@H](OC4CCN(c5cc(-c6n[nH]c7cc(F)c(OC8(C)CC8)cc67)ncn5)CC4)CC3)CC2)ccc2c1CN(C1CCC(=O)NC1=O)C2=O (stereo partly shown) [Compound 281, 3-[4-methoxy-1-oxo-5-(4-{[(1r,4r)-4-[(1-{6-[6-fluoro-5-(1-methylcyclopropoxy)-1H-indazol-3-yl]pyrimidin-4-yl}piperidin-4-yl)oxy]cyclohexyl]methyl}piperazin-1-yl)-2,3-dihydro-1H-isoindol-2-yl]piperidine-2,6-dione]
- Dmax [3]: 50 to 70%
- DC50 [4]: < 0.01 µM

Structure (SMILES): CC1(Oc2ccc3[nH]nc(-c4ccnc(N5CCC(O[C@H]6CC[C@H](CN7CCN(c8ccc9c(c8F)CN(C8CCC(=O)NC8=O)C9=O)CC7)CC6)CC5)c4)c3n2)CC1 (stereo partly shown) [Compound 375, 3-(4-fluoro-5-(4-(((1r,4r)-4-((1-(4-(5-(1-methylcyclopropoxy)-1H-pyrazolo[4,3-b]pyridin-3-yl)pyridin-2-yl)piperidin-4-yl)oxy)cyclohexyl)methyl)piperazin-1-yl)-1-oxoisoindolin-2-yl)piperidine-2,6-dione]
- DC50 [5]: < 0.01 µM
- Dmax [6]: 50 to 70%

Structure (SMILES): COc1c(N2CCC(CN3CCN(CC4CCN(c5cc(-c6n[nH]c7ccc(OC8(C)CC8)cc67)ncn5)CC4)C[C@@H]3C)CC2)ccc2c1CN(C1CCC(=O)NC1=O)C2=O (stereo partly drawn) [Compound 264, 3-[4-methoxy-5-(4-{[(2S)-2-methyl-4-[(1-{6-[5-(1-methylcyclopropoxy)-1H-indazol-3-yl]pyrimidin-4-yl}piperidin-4-yl)methyl]piperazin-1-yl]methyl}piperidin-1-yl)-1-oxo-2,3-dihydro-1H-isoindol-2-yl]piperidine-2,6-dione]
- Dmax [3]: ≥ 70%
- DC50 [4]: < 0.01 µM

Structure (SMILES): COc1c(N2CCN(CC3(F)CCN(CC4CCN(c5cc(-c6[nH]nc7ccc(OC8(C)CC8)cc67)ncn5)CC4)CC3)CC2)ccc2c1CN(C1CCC(=O)NC1=O)C2=O (stereo not shown) [Compound 246, 3-{5-[4-({4-fluoro-1-[(1-{6-[5-(1-methylcyclopropoxy)-2H-indazol-3-yl]pyrimidin-4-yl}piperidin-4-yl)methyl]piperidin-4-yl}methyl)piperazin-1-yl]-4-methoxy-1-oxo-2,3-dihydro-1H-isoindol-2-yl}piperidine-2,6-dione]
- DC50 [5]: < 0.01 µM
- Dmax [6]: 50 to 70%

Structure (SMILES): COc1c(N2CCN(C[C@H]3C[C@H](OC4CCN(c5cc(-c6[nH]nc7ccc(OC8(C)CC8)cc67)ncn5)CC4)C3)CC2)ccc2c1CN(C1CCC(=O)NC1=O)C2=O (stereo partly shown) [Compound 314, 3-[4-methoxy-1-oxo-5-(4-{[(1r,3r)-3-[(1-{6-[5-(1-methylcyclopropoxy)-2H-indazol-3-yl]pyrimidin-4-yl}piperidin-4-yl)oxy]cyclobutyl]methyl}piperazin-1-yl)-2,3-dihydro-1H-isoindol-2-yl]piperidine-2,6-dione]
- Dmax [3]: 50 to 70%
- DC50 [4]: < 0.01 µM

Structure (SMILES): C[C@H]1CN(CC2CCN(c3ccc4c(c3F)CN(C3CCC(=O)NC3=O)C4=O)CC2)CCN1CC1CCN(c2cc(-c3n[nH]c4cnc(OC5(C)CC5)cc34)ncn2)CC1 (stereo partly drawn) [Compound 266, 3-[4-fluoro-5-(4-{[(3S)-3-methyl-4-[(1-{6-[5-(1-methylcyclopropoxy)-1H-pyrazolo[3,4-c]pyridin-3-yl]pyrimidin-4-yl}piperidin-4-yl)methyl]piperazin-1-yl]methyl}piperidin-1-yl)-1-oxo-2,3-dihydro-1H-isoindol-2-yl]piperidine-2,6-dione]
- Dmax [3]: ≥ 70%
- DC50 [4]: < 0.01 µM

Structure (SMILES): COc1c(N2CCC(CN3CCN(CC4CCN(c5cc(-c6n[nH]c7ccc(OC8(C)CC8)cc67)ncn5)CC4)[C@H](C)C3)CC2)ccc2c1CN(C1CCC(=O)NC1=O)C2=O (stereo partly drawn) [Compound 255, 3-[4-methoxy-5-(4-{[(3R)-3-methyl-4-[(1-{6-[5-(1-methylcyclopropoxy)-1H-indazol-3-yl]pyrimidin-4-yl}piperidin-4-yl)methyl]piperazin-1-yl]methyl}piperidin-1-yl)-1-oxo-2,3-dihydro-1H-isoindol-2-yl]piperidine-2,6-dione]
- DC50 [5]: < 0.01 µM
- Dmax [6]: 50 to 70%

Structure (SMILES): C[C@H]1CN(c2cc(-c3[nH]nc4ccc(OC5(C)CC5)cc34)ncn2)CCN1CCN1CCN(CC2CCN(c3ccc4c(c3)CN(C3CCC(=O)NC3=O)C4=O)CC2)CC1 (stereo partly drawn) [Compound 65, 3-(5-{4-[(4-{2-[(2S)-2-methyl-4-{6-[5-(1-methylcyclopropoxy)-2H-indazol-3-yl]pyrimidin-4-yl}piperazin-1-yl]ethyl}piperazin-1-yl)methyl]piperidin-1-yl}-1-oxo-2,3-dihydro-1H-isoindol-2-yl)piperidine-2,6-dione]
- Dmax (endogenous HiBit-tagged LRRK2 in HEK293 cells, 24 hours, read-out: **Endogenous WT Dmax (%)): ≥ 70%
- DC50 (endogenous HiBit-tagged LRRK2 in HEK293 cells, 24 hours, read-out: *Endogenous WT DC50): < 0.01 µM

Structure (SMILES): CC1(Oc2ccc3[nH]nc(-c4cc(N5CCN(C[C@H]6CC[C@H](CN7CCN(c8ccc9c(c8Cl)CN(C8CCC(=O)NC8=O)C9=O)CC7)CC6)CC5)ncn4)c3c2)CC1 (stereo partly shown) [Compound 370, 3-[4-chloro-1-oxo-5-(4-{[(1r,4r)-4-[(4-{6-[5-(1-methylcyclopropoxy)-1H-indazol-3-yl]pyrimidin-4-yl}piperazin-1-yl)methyl]cyclohexyl]methyl}piperazin-1-yl)-2,3-dihydro-1H-isoindol-2-yl]piperidine-2,6-dione]
- DC50 [5]: < 0.01 µM
- Dmax [6]: 50 to 70%

The remaining lines, values ahead:

- Dmax [1]: ≥ 70%
- DC50 [2]: < 0.01 µM
Structure (SMILES): CC1(Oc2ccc3[nH]nc(-c4cc(N5CCN(CC6(F)CCN(CC7CCN(c8ccc9c(c8F)CN(C8CCC(=O)NC8=O)C9=O)CC7)CC6)CC5)ncn4)c3c2)CC1 (stereo not shown) [Compound 182, 3-[4-fluoro-5-[4-[[4-fluoro-4-[[4-[6-[5-(1-methylcyclopropoxy)-1H-indazol-3-yl]pyrimidin-4-yl]piperazin-1-yl]methyl]-1-piperidyl]methyl]-1-piperidyl]-1-oxo-isoindolin-2-yl]piperidine-2,6-dione]

- DC50 [5]: < 0.01 µM
- Dmax [6]: 50 to 70%
Structure (SMILES): CC1(Oc2ccc3[nH]nc(-c4cc(N5CCC(CCN6CCC7(CN(c8ccc9c(c8F)CN(C8CCC(=O)NC8=O)C9=O)C7)C(F)(F)C6)CC5)ncn4)c3c2)CC1 (stereo not shown) [Compound 376, 3-(5-{5,5-difluoro-7-[2-(1-{6-[5-(1-methylcyclopropoxy)-1H-indazol-3-yl]pyrimidin-4-yl}piperidin-4-yl)ethyl]-2,7-diazaspiro[3.5]nonan-2-yl}-4-fluoro-1-oxo-2,3-dihydro-1H-isoindol-2-yl)piperidine-2,6-dione]

- Dmax [1]: ≥ 70%
- DC50 [2]: < 0.01 µM
Structure (SMILES): CC1(Oc2ccc3[nH]nc(-c4cc(N5CCC(CN6CCN(CC7CCN(c8ccc9c(c8F)CN(C8CCC(=O)NC8=O)C9=O)CC7)CC6)CC5)ncn4)c3c2)CC1 (stereo not shown) [Compound 181, 3-[4-fluoro-5-[4-[[4-[[1-[6-[5-(1-methylcyclopropoxy)-1H-indazol-3-yl]pyrimidin-4-yl]-4-piperidyl]methyl]piperazin-1-yl]methyl]-1-piperidyl]-1-oxo-isoindolin-2-yl]piperidine-2,6-dione]

- DC50 [5]: < 0.01 µM
- Dmax [6]: 50 to 70%
Structure (SMILES): CC1(Oc2ccc3[nH]nc(-c4cc(N5CCC(OCCN6CCC7(CN(c8ccc9c(c8F)CN(C8CCC(=O)NC8=O)C9=O)C7)C(F)(F)C6)CC5)ncn4)c3c2)CC1 (stereo not shown) [Compound 362, 3-[5-(5,5-difluoro-7-{2-[(1-{6-[5-(1-methylcyclopropoxy)-1H-indazol-3-yl]pyrimidin-4-yl}piperidin-4-yl)oxy]ethyl}-2,7-diazaspiro[3.5]nonan-2-yl)-4-fluoro-1-oxo-2,3-dihydro-1H-isoindol-2-yl]piperidine-2,6-dione]

- DC50 [5]: < 0.01 µM
- Dmax [6]: 50 to 70%
Structure (SMILES): CC1(Oc2ccc3[nH]nc(-c4cc(N5CCC(CN6CCC(F)(CC7CCN(c8ccc9c(c8F)CN(C8CCC(=O)NC8=O)C9=O)CC7)CC6)CC5)ncn4)c3c2)CC1 (stereo not shown) [Compound 231, 3-[4-fluoro-5-[4-[[4-fluoro-1-[[1-[6-[5-(1-methylcyclopropoxy)-1H-indazol-3-yl]pyrimidin-4-yl]-4-piperidyl]methyl]-4-piperidyl]methyl]-1-piperidyl]-1-oxo-isoindolin-2-yl]piperidine-2,6-dione]

- DC50 [5]: < 0.01 µM
- Dmax [6]: ≥ 70%
Structure (SMILES): CC1(Oc2ccc3[nH]nc(-c4cc(N5CCC(CC6(F)CCN(CC7CCN(c8ccc9c(c8F)CN(C8CCC(=O)NC8=O)C9=O)CC7)CC6)CC5)ncn4)c3c2)CC1 (stereo not shown) [Compound 206, 3-[4-fluoro-5-[4-[[4-fluoro-4-[[1-[6-[5-(1-methylcyclopropoxy)-1H-indazol-3-yl]pyrimidin-4-yl]-4-piperidyl]methyl]-1-piperidyl]methyl]-1-piperidyl]-1-oxo-isoindolin-2-yl]piperidine-2,6-dione]
